{"source": "patent US20090274739A1", "about": "“METHODS AND COMPOSITIONS FOR TREATING NEOINTIMAL HYPERPLASIA” (THE TRUSTEES OF COLUMBIA UNIVERSITY IN THE CITY OF NEW YORK, priority 2006, published 2009)", "key": {"[1]": {"test_system": "cultured porcine coronary arteries", "conditions": "LY294002 10 μM; cited from earlier work"}, "[2]": {"test_system": "primary murine aortic vascular smooth muscle cells (VSMC)", "assay": "VSMC proliferation assay (Coulter counter / MTS-based)", "assay_type": "cell-based, mouse", "protocol": "The methods used in the above experiments were as follows: Cell Culture and VSMC Proliferation Assays. Primary VSMC were isolated from aortic explants of wildtype, ob/ob, or db/db mice in the method of Roque et al. 30. VSMC were routinely cultured in Dulbecco's Modified Eagle's Medium (DMEM) containing either 4500 or 1250 mg/L glucose supplemented with 20% FBS at 37° C. in a 5% CO2 incubator. […] Cells were plated at 200,000 cells/ well of a 6 well dish and subsequently serum starved for 72 hr in DMEM media supplemented with 0.1 % FBS. Leptin dissolved in PBS was added directly to serum-free media at concentrations of 1, 10, or 100 ng/ml with […] LY294002 or U0126, and cells were grown for another 72 hr before harvesting. VSMC proliferation was measured by counting samples using a Coulter counter or using the Cell Titre 96 Aqueous One Solution Cell Proliferation Assay kit (Promega). Cell viability was assessed by Trypan Blue staining.\nProliferation of VSMCs: VSMC proliferation was measured by counting triplicate samples using a Coulter counter or using the CellTitier 96 Aqueous One Solution Cell Proliferation Assay (Promega, Madison, Wis.) kit per manufacturer's instructions. Cell viability was assessed via staining with Trypan Blue.\nMurine VSMCs (2×10^4 cells/well) were incubated in a 6-well tissue culture plate for 72 hours in DMEM containing 0.1% FBS with or without insulin (10 or 100 nmol/L) and with 0, 1, 10, or 100 nmol/L rapamycin. Triplicate samples were counted using a Coulter counter and were normalized as percentage of the control group. Cell viability was checked via Trypan blue staining.\nMurine VSMCs, seeded 2×10^4 cells/well in a 6-well plate, were starved for 72 hrs in DMEM with 0.1% FBS. Rapamycin, leptin, or insulin in different concentrations indicated in the figure were incubated with VSMCs in DMEM with 0.1% of FBS for 72 hrs. Triplicate samples were counted via a Coulter counter. Cell viability was checked via Trypan blue staining. […] In panel C, VSMCs were exposed to U0126, a specific MEK1/2 inhibitor, or LY294002, a specific PI3K inhibitor.\nPrimary VSMC were isolated from aortic explants of WT, ob/ob, or db/db mice (46). VSMC proliferation was determined using the Cell Titre Aqueous One Solution Proliferation Assay (Promega, Madison, Wis.). Migration to PDGF-BB was assessed in a modified Boyden chamber assay (47)."}, "[3]": {"test_system": "murine femoral artery wire injury model (neointimal hyperplasia)", "assay": "Femoral artery wire injury model, morphometry of neointimal formation", "assay_type": "in vivo, mouse", "design": "Lumen / Media / Intima / TVA (total vessel area): unit not given here", "excerpt": "Animal Models and Drug Treatments. Wild type C57BL/6J background mice and mice deficient for leptin (C57BL/6J-Lepob; ob/ob) or the leptin receptor (C57BL/6J-m+/+Lepdb; db/db) were purchased from Charles Jackson Laboratories, Maine. Mice were obtained at ages 6-8 weeks old and average weight 15 g. Animals were fed standard rodent chow and tap water ad libitum. Procedures and animal care were approved by the Institutional Animal Care and Use Committee. Mice were subjected to femoral artery wire injury or sham injury described below 24 hr prior to starting pharmacological treatments. Sirolimus was administered by intraperitoneal injection once per day for 14 days as a suspension in 0.2% sodium carboxymethyl cellulose and 0.25% polysorbate-80; duplicate experiments were accomplished with 0.5% DMSO. Leptin or LY294002 was administered by intraperitoneal injection once per day for 14 days as a suspension in PBS. Plasma leptin levels were measured at baseline, 3, 6, and 10 hr after leptin injection using an ELISA assay (R&D). Leptin plus the vehicle used for both sirolimus and LY294002 was used as the control group for the treatment groups with sirolimus and LY294002. After the 2-week treatment, animals were processed for femoral artery morphometry.\nFemoral Artery Injury Model. Endoluminal injury of bilateral femoral arteries was performed according to the method of Roque et al. with minor modification 27. […] Briefly, to denude and dilate femoral arteries, a 0.014″ angioplasty guidewire (Guidant) was passed endoluminally 3 times to the level of the aortic bifurcation. A sham protocol was performed where the arteries underwent dissection, clamping, and ligature without passage of the guidewire.\nComputer-aided quantitative morphometry to measure luminal, medial, intimal, and vessel areas were performed as previously described 27 with minor modification. Mice were euthanized via CO2 asphyxiation prior to en bloc excision of hind limbs. Briefly, multiple segments of the common femoral artery at the level of injury were fixed in 10% Zinc Formalin, embedded in paraffin, sectioned at […] thickness, and subjected to Elastic-Van Gieson staining at a Columbia University Core Histology facility. In many cases, arteries underwent immunohistochemical staining for smooth muscle a-actin to highlight the media and neointima. Photomicrographs were captured on Adobe Photoshop 7.0 and transferred to Scion Image software for quantitative analysis. Specimens were analyzed by two independent operators blinded to the treatment groups. Microsoft Excel software was used to calculate the RNI values from I/M ratios in the absence and presence of pharmacological inhibitors, as detailed in the text.\nSurgical Procedures: The mouse femoral artery wire injury model of was used with minor modifications (Roque M, et al., Arterioscler Thromb Vasc Biol, 2000, 20(2):335-42). Briefly, forty-two male mice were studied. Endoluminal injury to the common femoral artery was produced by either 3 passages of a 0.014″ diameter angioplasty guidewire (Guidant, Santa Clara, Calif.). […] While being viewed under a surgical microscope, a groin incision was made and the femoral artery was isolated and temporarily clamped distal to the inguinal ligament. An arteriotomy was performed and the guidewire was passed 3 times to the level of the aortic bifurcation. The artery was then ligated proximal to the arteriotomy. A sham protocol was carried out on the contralateral side where the arteries underwent dissection, temporary clamping, and ligature, without passage of the wire. The formation of the neointima was confirmed in this model as being comprised mainly of VSMCs through immunohistochemical staining of representative sections for α-smooth muscle actin via a commercial kit (Sigma).\nFor all treatment protocols, rapamycin was administered by intraperitoneal injection once per day, for 14 days, as a suspension in 0.2% sodium carboxymethyl cellulose and 0.25% polysorbate-80. […]"}, "[4]": {"test_system": "primary murine aortic vascular smooth muscle cells (VSMC)", "assay": "VSMC proliferation assay (Coulter counter / MTS-based)", "assay_type": "cell-based, mouse", "conditions": "Example 5; 6 nM leptin; inhibitor 10 μM"}, "[5]": {"test_system": "Akt Thr-308 phosphorylation", "assay": "Akt Thr-308 phosphorylation in descending aorta homogenates after i.p. treatment", "assay_type": "in vivo", "conditions": "Mus musculus, ip, 168 h; LY294002 1.2 mg/kg/day i.p., 7 days; read-out: inhibition of basal Thr-308 phosphorylation of Akt in descending aortas", "excerpt": "Animals were processed for femoral artery morphometry after the 14-day drug treatments. For assessing LY294002 efficacy in vivo, descending aortas from mice treated with LY294002 or vehicle were harvested after 7 days of treatment; 3-4 aortas were pooled for immunoblot assessment of Akt phosphorylation."}, "[6]": {"conditions": "wire injury + leptin 0.4 mg/kg, LY 1.2 mg/kg daily i.p. 14 days, mean ± SD"}}, "note": "Entries after “also recorded” stand apart in the source; their conditions may differ.", "data": [{"smiles": "O=c1cc(N2CCOCC2)oc2c(-c3ccccc3)cccc12", "note": "[LY294002, 2-(4-morpholinyl)-8-phenyl-4H-1-benzopyran-4-one]", "values": [{"measurement": "neointimal hyperplasia in cultured porcine coronary arteries", "setting": "[1]", "result": "prevents neointimal hyperplasia"}, {"measurement": "effect on leptin-induced proliferation of murine VSMC", "setting": "[2]; Example 1, 100 ng/mL leptin, inhibitor 10 mM, 72 hr", "result": "did inhibit"}, {"measurement": "VSMC proliferation induced by leptin and insulin", "setting": "[2]; LY294002 compared with 100 nmol/L rapamycin alone", "result": "more pronounced effect"}, {"measurement": "inhibition of leptin-induced neointimal formation", "setting": "[3]; LY294002 1.2 mg/kg/d alone, leptin 0.4 mg/kg/d, 14 days", "result": "partially inhibited; also recorded: not the LY294002 alone group revealed a complete inhibition"}, {"measurement": "relative neointimal inhibition (RNI)", "setting": "[3]; LY294002 1.2 mg/kg, leptin 0.4 mg/kg", "result": 0.70}, {"measurement": "I/M (intima:media ratio)", "setting": "[3]; [6]", "result": "0.574 ± 0.186"}, {"measurement": "Intima", "setting": "[3]; [6]", "result": "0.010 ± 0.003"}, {"measurement": "Lumen", "setting": "[3]; [6]", "result": "0.013 ± 0.002"}, {"measurement": "Media", "setting": "[3]; [6]", "result": "0.020 ± 0.003"}, {"measurement": "TVA (total vessel area)", "setting": "[3]; [6]", "result": "0.044 ± 0.006"}, {"measurement": "effect on leptin-induced VSMC proliferation", "setting": "[4]", "result": "inhibited"}, {"measurement": "inhibition at 1.2 mg/kg/day", "setting": "[5]", "result": "> 80", "unit": "%"}]}]}
